# Measured values: patent US20240082331A1, “ANTI-OBESITY COMPOSITION CONTAINING, AS ACTIVE INGREDIENT, MORINGA OLEIFERA FERMENTATION PRODUCT PREPARED USING NOVEL MONASCUS PURPUREUS SL1” (MBIOMETHERAPEUTICS CO., LTD., priority 2021, published 2024)
# Test system: 3T3-L1 preadipocytes
# Experiment: Inhibition of adipocyte differentiation (AdipoRed assay)
# Assay type: cell-based, mice
# Details: FIG. 3
# Method: Preadipocytes (3T3-L1) from mice were purchased from ATCC (American Type Culture Collection). DMEM culture medium, Trypsin/EDTA, FBS (fetal bovine serum), and BCS (Bovine calf serum) were purchased from Gibco (Invitrogen corporation). AdipoRed assay reagent for measurement was purchased from Cambrex. Specifically, 3T3-L1 preadipocytes were cultured in DMEM medium containing 10% BCS and antibiotics, and maintained in a CO 2 incubator with 5% carbon dioxide supply. The cells were seeded at a concentration of 1×10^6 cells in a 96-well plate and cultured until they reached 100% confluency. To measure adipocyte differentiation, the cells were treated with MD medium (0.5 mM 3-isobutyl-1-methylxanthine and 1 μM dexamethasone). After 2 days, the medium was replaced with DMEM medium containing 10% FBS, and further cultured for 6 days. Moringa powder and fermented Moringa extract were treated at various concentrations. […] After 10 minutes, fluorescence intensity was measured using a fluorescence intensity reader. Subsequently, the inhibitory effect on adipocyte differentiation in the six compounds isolated in Example 2 was measured. […]
smiles,measurement,value
"CC(=O)OC[C@H]1O[C@@H](Oc2c(-c3ccc(O)cc3)oc3cc(O)cc(O)c3c2=O)[C@H](O)[C@@H](O)[C@@H]1O [MOFE-16-5, 6″-O-acetyl astragalin]",adipocyte differentiation inhibition activity of isolated compounds,excellent adipocyte differentiation inhibition activity
